PMC9501377, “New Diarylamine KV10.1 Inhibitors and Their Anticancer Potential” (Pharmaceutics, 2022)
Values joined by “and” are separate entries in the source; they are usually repeats but may differ in a detail not shown here. Equal entries are not always repeated.

What was measured:
[1] = biological target: T1, KV10.1 (Homo sapiens, UniProt O95259); test: Two-electrode voltage-clamp on Xenopus laevis oocytes expressing KV10.1; assay type: cell-based; conditions: voltage-clamped
T1 construct: expressed in transfected cells; host or cells: Xenopus laevis oocytes (cRNA injection)
T1 sequence (O95259 1-989): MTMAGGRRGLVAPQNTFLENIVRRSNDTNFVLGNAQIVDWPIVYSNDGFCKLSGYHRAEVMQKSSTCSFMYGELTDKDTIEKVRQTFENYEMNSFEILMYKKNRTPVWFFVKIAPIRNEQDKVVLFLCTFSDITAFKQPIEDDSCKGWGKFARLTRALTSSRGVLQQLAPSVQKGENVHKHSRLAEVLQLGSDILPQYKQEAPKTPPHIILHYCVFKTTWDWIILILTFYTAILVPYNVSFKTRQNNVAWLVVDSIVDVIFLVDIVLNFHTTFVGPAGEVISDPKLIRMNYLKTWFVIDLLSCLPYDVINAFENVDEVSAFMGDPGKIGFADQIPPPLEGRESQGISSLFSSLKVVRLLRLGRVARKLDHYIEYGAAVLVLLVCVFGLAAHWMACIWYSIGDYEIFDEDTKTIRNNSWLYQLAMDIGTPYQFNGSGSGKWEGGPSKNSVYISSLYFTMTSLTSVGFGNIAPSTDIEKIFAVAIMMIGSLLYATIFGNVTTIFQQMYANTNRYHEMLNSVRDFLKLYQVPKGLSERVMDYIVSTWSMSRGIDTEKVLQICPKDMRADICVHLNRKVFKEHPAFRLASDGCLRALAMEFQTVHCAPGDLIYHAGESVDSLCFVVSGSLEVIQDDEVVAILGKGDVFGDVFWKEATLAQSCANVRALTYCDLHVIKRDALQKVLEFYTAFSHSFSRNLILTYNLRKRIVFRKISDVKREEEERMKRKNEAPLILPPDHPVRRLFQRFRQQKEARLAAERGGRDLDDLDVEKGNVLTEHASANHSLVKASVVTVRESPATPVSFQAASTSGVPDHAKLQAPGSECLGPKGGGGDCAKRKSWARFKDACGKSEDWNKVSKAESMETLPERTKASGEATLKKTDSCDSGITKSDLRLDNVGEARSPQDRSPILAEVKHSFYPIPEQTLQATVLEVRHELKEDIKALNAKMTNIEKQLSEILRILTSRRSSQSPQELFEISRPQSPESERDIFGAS
Source text: (§1) Stage V–VI oocytes were isolated by partial ovariectomy from Xenopus laevis frogs (African clawed frog). Mature female frogs were purchased from CRB Xénopes (Rennes, France) and were housed in the Aquatic Facility (KU Leuven) in compliance with the regulations of the European Union (EU) concerning the welfare of laboratory animals as declared in Directive 2010/63/EU. The use of Xenopus laevis was approved by the Animal Ethics Committee of the KU Leuven (Project nr. P186/2019). After anesthetising the frogs by a 15 min submersion in 0.1% tricaine methanesulphonate (pH 7.0), the oocytes were collected. The isolated oocytes were then washed with a 1.5 mg/mL collagenase solution for 2 h to remove the follicle layer.
(§2) Ion channels (KV10.1 and hERG) were expressed in Xenopus laevis oocytes, by linearisation of the plasmids and subsequent in vitro transcription using a commercial T7 or SP6 mMESSAGE mMACHINE transcription kit (Ambion, Carlsbad, CA, USA). Defolliculated Xenopus oocytes were then injected with 20–50 nL of the cRNA at a concentration of 1 ng/nL using a micro-injector (Drummond Scientific1, Broomall, PA, USA). The oocytes were incubated in a solution containing (in mM): NaCl, 96; KCl, 2; CaCl2, 1.8; MgCl2, 2 and HEPES, 5 (pH 7.4), supplemented with 50 mg/L gentamycin sulphate and […]. After ex vivo translation, the ion channels are correctly inserted in the cell membrane of the oocytes.
(§3) Two-electrode voltage-clamp recordings were performed at room temperature (18–22 °C) using a Geneclamp 500 amplifier (Molecular Devices, San Jose, CA, USA) controlled by a pClamp data acquisition system (Axon Instruments1, Union City, CA, USA) and using an integrated digital TEVC amplifier controlled by HiClamp, an automated Voltage-Clamp Screening System (Multi Channel Systems MCS GmbH, Reutlingen, Germany). Whole-cell currents from oocytes were recorded 1–7 days after injection. The bath solution composition was ND96 (in mM): NaCl, 96; KCl, 2; CaCl2, 1.8; MgCl2, 2 and HEPES, 5 (pH 7.5). Voltage and current electrodes were filled with a 3 M solution of KCl in H2O. Resistances of both electrodes were kept between 0.5 and 1.5 MΩ. The elicited Kv10.1 and hERG currents were filtered at 0.5 kHz and sampled at 2 kHz using a four-pole low-pass Bessel filter. Leak subtraction was performed using a p/4 protocol. Starting from a holding potential of −90 mV, currents for Kv10.1 were evoked by 1 s depolarizing pulses to 0 mV and currents for hERG were evoked by 2.5 s depolarizing prepulses to +40 mV, followed by hyperpolarizing pulses to −120 mV for 2.5 s. The concentration dependency of all compounds was assessed by measuring the current inhibition in the presence of increasing compound concentrations. To this end, a stock solution of the compounds was prepared in 100% DMSO for the sake of solubility. From this stock solution, adequate dilutions with a maximum of 0.5% DMSO were made for testing. The data of the concentration–response curves were fitted with the Hill equation: y = 100/{1 + (IC50/[compound])^h}, where y is the amplitude of the compound- induced effect, IC50 is the compound concentration at half-maximal efficacy, (compound) is the compound concentration, and h is the Hill coefficient.
(§4) All electrophysiological data are presented as means ± SEM of n ≥ 3 independent experiments unless otherwise indicated. Oocyte data were analysed using pClamp Clampfit 10.4 (Molecular Devices, Downingtown, PA, USA) and OriginPro 9 (Originlab, Northampton, MA, USA) or GraphPad Prism 8 software (GraphPad Software, Inc., San Diego, CA, USA). Patch-clamp data analysis was performed using FitMaster (HEKA Electronics), IgorPro (Wavemetrics, Inc., Lake Oswego, OR, USA) and GraphPad Prism 9 (GraphPad Software, Inc., San Diego, CA, USA). The Dunnett test and one-way ANOVA were performed to calculate the significance of the induced inhibition compared to the control (p < 0.05).

[2] = biological target: hERG (Homo sapiens, UniProt Q12809); test: Two-electrode voltage-clamp on Xenopus laevis oocytes expressing hERG; assay type: cell-based; parameters: expressed in transfected cells; host or cells: Xenopus laevis oocytes (cRNA injection); conditions: voltage-clamped; for inhibition at 10 µM: human, Xenopus laevis oocytes expressing hERG, pH 7.5, 10 μM
hERG, sequence (Q12809 whole entry): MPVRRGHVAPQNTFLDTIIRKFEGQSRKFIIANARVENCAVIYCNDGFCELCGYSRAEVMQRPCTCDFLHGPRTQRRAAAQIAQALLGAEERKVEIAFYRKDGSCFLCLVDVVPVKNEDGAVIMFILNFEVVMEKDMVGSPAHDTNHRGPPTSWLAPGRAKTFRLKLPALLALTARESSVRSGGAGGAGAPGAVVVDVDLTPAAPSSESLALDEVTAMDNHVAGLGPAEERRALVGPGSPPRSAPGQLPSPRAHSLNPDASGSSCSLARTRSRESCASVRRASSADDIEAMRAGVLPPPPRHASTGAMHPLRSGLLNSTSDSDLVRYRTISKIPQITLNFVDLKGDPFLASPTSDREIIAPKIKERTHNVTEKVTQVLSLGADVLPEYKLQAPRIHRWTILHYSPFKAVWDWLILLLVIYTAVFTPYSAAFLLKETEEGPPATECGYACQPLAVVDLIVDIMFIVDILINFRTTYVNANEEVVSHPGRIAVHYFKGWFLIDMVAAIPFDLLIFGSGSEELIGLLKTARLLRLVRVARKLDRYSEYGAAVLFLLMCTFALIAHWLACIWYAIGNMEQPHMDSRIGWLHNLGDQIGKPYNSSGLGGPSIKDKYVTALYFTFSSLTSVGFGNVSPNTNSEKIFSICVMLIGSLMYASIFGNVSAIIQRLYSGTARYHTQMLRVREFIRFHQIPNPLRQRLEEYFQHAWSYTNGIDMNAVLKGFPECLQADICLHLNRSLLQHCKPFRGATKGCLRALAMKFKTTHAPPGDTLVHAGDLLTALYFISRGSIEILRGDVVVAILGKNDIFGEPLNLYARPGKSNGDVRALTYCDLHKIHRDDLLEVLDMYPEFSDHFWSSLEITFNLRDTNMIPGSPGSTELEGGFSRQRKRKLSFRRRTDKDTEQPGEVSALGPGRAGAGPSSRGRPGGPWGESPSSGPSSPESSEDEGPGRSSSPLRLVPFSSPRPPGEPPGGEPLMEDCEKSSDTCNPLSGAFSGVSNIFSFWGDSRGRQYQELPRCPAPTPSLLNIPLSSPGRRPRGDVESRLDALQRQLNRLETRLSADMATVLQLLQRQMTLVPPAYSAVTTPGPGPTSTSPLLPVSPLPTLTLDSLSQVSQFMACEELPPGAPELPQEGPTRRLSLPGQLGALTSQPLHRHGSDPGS
Source text: as §1, §2, §3, §4

SMILES	inhibition at 10 µM [1]	IC50 [1]	inhibition at 10 µM [2]	IC50 [2]
COC(=O)c1ccccc1Oc1ccc(OCC(O)CN2CCOCC2)cc1 (stereo not shown) [Compound 5a, Methyl 2-(4-(2-hydroxy-3-morpholinopropoxy)phenoxy)benzoate]	-4.54%	–	15%	–
O=[N+]([O-])c1cc(C(F)(F)F)ccc1Oc1ccc(OCC(O)CN2CCOCC2)cc1 (stereo not shown) [Compound 5b, 1-Morpholino-3-(4-(2-nitro-4-(trifluoromethyl)phenoxy)phenoxy)propan-2-ol]	24.9%	–	11.5%	–
O=C(Nc1ccc(OCC(O)CN2CCOCC2)cc1)c1ccc(C(F)(F)F)cc1[N+](=O)[O-] (stereo not shown) [Compound 5c, N-(4-(2-Hydroxy-3-morpholinopropoxy)phenyl)-2-nitro-4-(trifluoromethyl)benzamide]	-0.66%	–	21.5%	–
COC(=O)c1ccccc1Nc1ccc(OCC(O)CN2CCOCC2)cc1 (stereo not shown) [Compound 5d, Methyl 2-((4-(2-hydroxy-3-morpholinopropoxy)phenyl)amino)benzoate]	-2.11%	–	20.4%	–
O=[N+]([O-])c1ccc(Nc2ccc(OCC(O)CN3CCOCC3)cc2)c([N+](=O)[O-])c1 (stereo not shown) [Compound 5f, 1-(4-((2,4-Dinitrophenyl)amino)phenoxy)-3-morpholinopropan-2-ol]	41.3%	–	65.8%	–
CN(C)CC(O)COc1ccc(Nc2ccc([N+](=O)[O-])cc2[N+](=O)[O-])cc1 (stereo not shown) [Compound 6d, 1-(Dimethylamino)-3-(4-((2,4-dinitrophenyl)amino)phenoxy)propan-2-ol]	44.1%	–	74.3%	–
O=[N+]([O-])c1cc(C(F)(F)F)ccc1Nc1ccc(OCCN2CCOCC2)cc1 [Compound 13, N-(4-(2-Morpholinoethoxy)phenyl)-2-nitro-4-(trifluoromethyl)aniline]	22.6%	–	34.7%	–
O=[N+]([O-])c1cc(C(F)(F)F)ccc1Nc1ccc(OCc2ccccc2)cc1 [Compound 14, N-(4-(Benzyloxy)phenyl)-2-nitro-4-(trifluoromethyl)aniline]	-1.18%	–	4.23%	–
CNCC(O)COc1ccc(Nc2ccc(C(F)(F)F)cc2[N+](=O)[O-])cc1 (stereo not shown) [Compound 15, 1-(Methylamino)-3-(4-((2-nitro-4-(trifluoromethyl)phenyl)amino)phenoxy)propan-2-ol]	39.9%	–	58.6%	–

Further lines, with some results ahead:

inhibition at 10 µM [1]	IC50 [1]	SMILES	inhibition at 10 µM [2]	IC50 [2]
23.7%	–	CN(C)CC(O)COc1ccc(Oc2ccc(C(F)(F)F)cc2[N+](=O)[O-])cc1 (stereo not shown) [Compound 6a, 1-(Dimethylamino)-3-(4-(2-nitro-4-(trifluoromethyl)phenoxy)phenoxy)propan-2-ol]	69.1%	–
-0.41%	–	CN(C)CC(O)COc1ccc(NC(=O)c2ccc(C(F)(F)F)cc2[N+](=O)[O-])cc1 (stereo not shown) [Compound 6b, N-(4-(3-(Dimethylamino)-2-hydroxypropoxy)phenyl)-2-nitro-4-(trifluoromethyl)benzamide]	9.83%	–
9.91%	–	COC(=O)c1cc(C(F)(F)F)ccc1Nc1ccc(OCC(O)CN(C)C)cc1 (stereo not shown) [Compound 6c, Methyl 2-((4-(3-(dimethylamino)-2-hydroxypropoxy)phenyl)amino)-5-(trifluoromethyl)benzoate]	63.7%	–
13%	–	O=C(O)c1ccccc1Nc1ccc(OCC(O)CN2CCOCC2)cc1 (stereo not shown) [Compound 10a, 2-((4-(2-Hydroxy-3-morpholinopropoxy)phenyl)amino)benzoic acid]	3.42%	–
15.7%	–	CN(C)CC(O)COc1ccc(Nc2ccc(C(F)(F)F)cc2C(=O)O)cc1 (stereo not shown) [Compound 10b, 2-((4-(3-(Dimethylamino)-2-hydroxypropoxy)phenyl)amino)-5-(trifluoromethyl)benzoic acid]	14.7%	–
0%	–	O=C(Cc1ccc(Cl)c(Cl)c1)NC1CCN(CC(O)COc2ccc(Nc3ccc(C(F)(F)F)cc3[N+](=O)[O-])cc2)CC1 (stereo not shown) [Compound 16d, 2-(3,4-Dichlorophenyl)-N-(1-(2-hydroxy-3-(4-((2-nitro-4-(trifluoromethyl)phenyl)amino)phenoxy)propyl)piperidin-4-yl)acetamide]	–	–
63.5%	3.58 µM and 3.6 µM	CCN(CC)CCOc1ccc(Nc2ccc(C(F)(F)F)cc2[N+](=O)[O-])cc1 [Compound 17a, N-(4-(2-(Diethylamino)ethoxy)phenyl)-2-nitro-4-(trifluoromethyl)aniline]	64.5%	2.01 µM and 2 µM
19.5%	–	CCN(CC)CCOc1c(Br)cc(Nc2ccc(C(F)(F)F)cc2[N+](=O)[O-])cc1Br [Compound 17b, 3,5-Dibromo-4-(2-(diethylamino)ethoxy)-N-(2-nitro-4-(trifluoromethyl)phenyl)aniline]	60.1%	–
9.21%	–	CCN(CC)CCOc1c(Cl)cc(Nc2ccc(C(F)(F)F)cc2[N+](=O)[O-])cc1Cl [Compound 17c, 3,5-Dichloro-4-(2-(diethylamino)ethoxy)-N-(2-nitro-4-(trifluoromethyl)phenyl)aniline]	54.7%	–
41.7%	11.6 ± 0.35 µM	CN(C)CCOc1ccc(Nc2ccc(C(F)(F)F)cc2[N+](=O)[O-])cc1 [Compound 18a, N-(4-(2-(Dimethylamino)ethoxy)phenyl)-2-nitro-4-(trifluoromethyl)aniline]	65.2%	7.56 ± 0.41 µM
26%	–	CN(C)CCOc1c(Br)cc(Nc2ccc(C(F)(F)F)cc2[N+](=O)[O-])cc1Br [Compound 18b, 3,5-Dibromo-4-(2-(dimethylamino)ethoxy)-N-(2-nitro-4-(trifluoromethyl)phenyl)aniline]	66.8%	–
